Data: patent US7282504B2, “Kinase inhibitors” (Amgen Inc., priority 2000, dated 2007)

Experiments:
Type in all cases: biochemical
EGFR-1 = molecular target: T1, EGFR-1 (Homo sapiens, UniProt P00533); experiment: Kinase inhibition, 33P transfer to plate-bound substrate: EGFR-1
T1 construct: Kinases are expressed as either kinase domains or full-length constructs; made in house
Excerpt: (§1) The inhibitor compounds described herein are screened in the following manner. Kinases suitable for use in the following protocol to determine kinase activity of the compounds described herein include, but are not limited to: Lck, Lyn, Src, Fyn, Syk, Zap-70, Itk, Tec, Btk, EGFR, ErbB2, Kdr, Flt-1, Flt-3, Tek, c-Met, InsR, and AKT.
(§2) Kinases are expressed as either kinase domains or full-length constructs fused to glutathione S-transferase (GST) or polyHistidine tagged fusion proteins in either E. coli or Baculovirus-High Five expression systems. They are purified to near homogeneity by affinity chromatography essentially as previously described (Lehr et al., 1996; Gish et al., 1995). In some instances, kinases are co-expressed or mixed with purified or partially purified regulatory polypeptides prior to measurement of activity.
(§3) Kinase activity and inhibition are measured essentially by established protocols (Braunwalder et al., 1996). Briefly, The transfer of ^33PO4 from ATP to the synthetic substrates poly(Glu, Tyr) 4:1 or poly(Arg, Ser) 3:1 attached to the bioactive surface of microtiter plates serves as the basis to evaluate enzyme activity. After an incubation period, the amount of phosphate transferred is measured by first washing the plate with 0.5% phosphoric acid, adding liquid scintillant, and then counting in a liquid scintillation detector. The IC50 is determined by the concentration of compound that causes a 50% reduction in the amount of ^33P incorporated onto the substrate bound to the plate.

Akt3-1 = molecular target: T2, Akt3-1 (Homo sapiens, UniProt Q9Y243); experiment: Kinase inhibition, 33P transfer to plate-bound substrate: Akt3-1
T2 construct: Kinases are expressed as either kinase domains or full-length constructs; made in house
T2 sequence (Q9Y243 whole entry, the tested form may be a part): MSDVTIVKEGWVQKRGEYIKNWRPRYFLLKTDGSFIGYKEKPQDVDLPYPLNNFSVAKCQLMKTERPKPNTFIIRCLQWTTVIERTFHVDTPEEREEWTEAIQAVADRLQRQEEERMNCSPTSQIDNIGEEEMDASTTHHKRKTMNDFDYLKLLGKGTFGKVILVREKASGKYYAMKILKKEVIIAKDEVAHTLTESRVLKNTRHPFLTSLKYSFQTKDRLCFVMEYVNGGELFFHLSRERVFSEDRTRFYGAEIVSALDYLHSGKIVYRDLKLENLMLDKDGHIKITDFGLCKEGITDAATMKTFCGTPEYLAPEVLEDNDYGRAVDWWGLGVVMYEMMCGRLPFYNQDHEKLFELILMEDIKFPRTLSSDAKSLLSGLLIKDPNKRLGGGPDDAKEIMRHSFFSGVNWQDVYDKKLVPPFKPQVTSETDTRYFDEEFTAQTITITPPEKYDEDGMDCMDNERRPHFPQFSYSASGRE
Excerpt: as §1, §2, §3

Lck-2 = molecular target: T3, Lck-2 (Homo sapiens, UniProt P06239); experiment: Kinase inhibition, 33P transfer to plate-bound substrate: Lck-2
T3 construct: Kinases are expressed as either kinase domains or full-length constructs; made in house
T3 sequence (P06239 whole entry, the tested form may be a part): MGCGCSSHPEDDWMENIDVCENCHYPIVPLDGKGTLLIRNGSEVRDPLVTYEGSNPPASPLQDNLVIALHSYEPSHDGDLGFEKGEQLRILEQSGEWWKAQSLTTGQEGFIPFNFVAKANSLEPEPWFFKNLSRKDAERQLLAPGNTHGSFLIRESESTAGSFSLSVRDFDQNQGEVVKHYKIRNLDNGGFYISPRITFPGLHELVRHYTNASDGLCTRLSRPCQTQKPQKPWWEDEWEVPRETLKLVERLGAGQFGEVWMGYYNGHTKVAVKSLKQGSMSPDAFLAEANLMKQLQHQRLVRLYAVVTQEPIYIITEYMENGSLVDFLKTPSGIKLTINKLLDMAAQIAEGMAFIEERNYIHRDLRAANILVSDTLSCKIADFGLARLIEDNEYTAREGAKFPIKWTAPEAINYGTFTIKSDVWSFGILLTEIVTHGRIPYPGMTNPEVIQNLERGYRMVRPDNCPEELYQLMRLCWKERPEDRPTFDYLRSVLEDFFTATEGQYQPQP
Excerpt: as §1, §2, §3

Itk-1 = molecular target: T4, Itk-1 (Homo sapiens, UniProt Q08881); experiment: Kinase inhibition, 33P transfer to plate-bound substrate: Itk-1
T4 construct: Kinases are expressed as either kinase domains or full-length constructs; made in house
T4 sequence (Q08881 1-620): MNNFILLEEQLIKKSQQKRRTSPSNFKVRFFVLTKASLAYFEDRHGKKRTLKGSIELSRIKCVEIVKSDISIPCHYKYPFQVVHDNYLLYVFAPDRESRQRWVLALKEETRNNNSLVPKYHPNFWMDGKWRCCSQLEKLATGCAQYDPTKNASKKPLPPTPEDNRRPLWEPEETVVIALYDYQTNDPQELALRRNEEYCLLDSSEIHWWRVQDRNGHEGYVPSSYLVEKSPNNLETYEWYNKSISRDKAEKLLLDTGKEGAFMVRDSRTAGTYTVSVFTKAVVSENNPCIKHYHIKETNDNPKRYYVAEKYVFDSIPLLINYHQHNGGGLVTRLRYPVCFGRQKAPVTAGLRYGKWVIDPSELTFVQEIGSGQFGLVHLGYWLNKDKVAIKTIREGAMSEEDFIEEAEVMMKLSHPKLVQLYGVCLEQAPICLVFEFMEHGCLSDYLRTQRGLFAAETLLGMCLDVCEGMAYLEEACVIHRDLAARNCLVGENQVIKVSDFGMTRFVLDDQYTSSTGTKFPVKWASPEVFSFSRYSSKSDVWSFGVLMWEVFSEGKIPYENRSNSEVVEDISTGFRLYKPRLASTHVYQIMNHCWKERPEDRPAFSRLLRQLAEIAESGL
Excerpt: as §1, §2, §3

Lck-1 = molecular target: T5, Lck-1 (Homo sapiens, UniProt P06239); experiment: Kinase inhibition, 33P transfer to plate-bound substrate: Lck-1
T5 construct: Kinases are expressed as either kinase domains or full-length constructs; made in house
T5 sequence (P06239 whole entry, the tested form may be a part): as the sequence (P06239 whole entry, the tested form may be a part) above
Excerpt: as §1, §2, §3

Zap-1 = molecular target: T6, Zap-1 (Homo sapiens, UniProt P43403); experiment: Kinase inhibition, 33P transfer to plate-bound substrate: Zap-1
T6 construct: Kinases are expressed as either kinase domains or full-length constructs; made in house
T6 sequence (P43403 1-619): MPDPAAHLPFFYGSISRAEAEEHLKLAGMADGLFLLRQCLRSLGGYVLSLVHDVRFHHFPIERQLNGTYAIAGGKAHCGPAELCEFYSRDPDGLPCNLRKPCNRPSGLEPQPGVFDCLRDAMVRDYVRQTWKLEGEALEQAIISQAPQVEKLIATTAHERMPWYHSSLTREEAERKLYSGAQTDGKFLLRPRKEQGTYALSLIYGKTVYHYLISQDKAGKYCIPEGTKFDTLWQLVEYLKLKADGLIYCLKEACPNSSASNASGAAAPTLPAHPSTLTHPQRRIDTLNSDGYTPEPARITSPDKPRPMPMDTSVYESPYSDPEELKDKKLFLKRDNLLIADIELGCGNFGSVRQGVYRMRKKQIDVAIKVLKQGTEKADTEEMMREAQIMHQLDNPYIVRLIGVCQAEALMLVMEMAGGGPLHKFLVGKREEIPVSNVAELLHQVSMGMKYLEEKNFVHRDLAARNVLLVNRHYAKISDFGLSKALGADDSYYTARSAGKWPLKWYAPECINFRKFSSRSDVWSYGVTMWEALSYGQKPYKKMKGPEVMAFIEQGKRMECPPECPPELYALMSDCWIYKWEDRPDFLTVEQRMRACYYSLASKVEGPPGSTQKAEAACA
Excerpt: as §1, §2, §3

Met-1 = molecular target: T7, Met-1 (Homo sapiens, UniProt P08581); experiment: Kinase inhibition, 33P transfer to plate-bound substrate: Met-1
T7 construct: Kinases are expressed as either kinase domains or full-length constructs; made in house
Excerpt: as §1, §2, §3

Tek-1 = molecular target: T8, Tek-1 (Homo sapiens, UniProt Q02763); experiment: Kinase inhibition, 33P transfer to plate-bound substrate: Tek-1
T8 construct: Kinases are expressed as either kinase domains or full-length constructs; made in house
T8 sequence (Q02763 23-1124): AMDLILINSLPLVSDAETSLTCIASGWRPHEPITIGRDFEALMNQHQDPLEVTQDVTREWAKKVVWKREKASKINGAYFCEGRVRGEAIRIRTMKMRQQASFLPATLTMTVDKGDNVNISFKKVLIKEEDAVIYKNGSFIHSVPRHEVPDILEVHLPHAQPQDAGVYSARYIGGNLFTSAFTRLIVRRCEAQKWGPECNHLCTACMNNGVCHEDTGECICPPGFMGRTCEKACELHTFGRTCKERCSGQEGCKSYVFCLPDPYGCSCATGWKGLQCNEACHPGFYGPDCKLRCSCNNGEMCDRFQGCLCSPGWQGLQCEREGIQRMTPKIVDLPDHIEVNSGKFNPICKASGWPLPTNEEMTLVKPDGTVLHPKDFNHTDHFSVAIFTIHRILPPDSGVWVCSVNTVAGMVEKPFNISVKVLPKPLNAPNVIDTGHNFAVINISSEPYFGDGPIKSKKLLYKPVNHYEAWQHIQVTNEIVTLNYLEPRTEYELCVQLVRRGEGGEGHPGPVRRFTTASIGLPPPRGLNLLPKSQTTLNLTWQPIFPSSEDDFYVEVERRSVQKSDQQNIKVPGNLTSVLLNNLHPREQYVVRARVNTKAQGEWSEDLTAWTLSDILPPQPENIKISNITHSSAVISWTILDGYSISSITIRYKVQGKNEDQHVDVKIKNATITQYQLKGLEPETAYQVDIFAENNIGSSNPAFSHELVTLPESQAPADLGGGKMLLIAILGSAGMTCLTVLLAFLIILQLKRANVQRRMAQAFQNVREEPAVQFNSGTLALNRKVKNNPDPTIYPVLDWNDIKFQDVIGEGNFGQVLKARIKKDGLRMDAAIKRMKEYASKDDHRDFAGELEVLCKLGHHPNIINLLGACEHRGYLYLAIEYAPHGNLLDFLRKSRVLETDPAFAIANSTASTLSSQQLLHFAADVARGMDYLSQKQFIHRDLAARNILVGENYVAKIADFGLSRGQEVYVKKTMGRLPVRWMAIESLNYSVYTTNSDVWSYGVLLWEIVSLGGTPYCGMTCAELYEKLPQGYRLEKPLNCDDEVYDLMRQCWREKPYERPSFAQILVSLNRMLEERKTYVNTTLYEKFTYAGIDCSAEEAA
Excerpt: as §1, §2, §3

KDR-1 = molecular target: T9, KDR-1 (Homo sapiens, UniProt P35968); experiment: Kinase inhibition, 33P transfer to plate-bound substrate: KDR-1
T9 construct: Kinases are expressed as either kinase domains or full-length constructs; made in house
Excerpt: as §1, §2, §3

ErbB2-1 = molecular target: T10, ErbB2-1 (Homo sapiens, UniProt P04626); experiment: Kinase inhibition, 33P transfer to plate-bound substrate: ErbB2-1
T10 construct: Kinases are expressed as either kinase domains or full-length constructs; made in house
Excerpt: as §1, §2, §3

IGFR-1 = molecular target: T11, IGFR-1 (Homo sapiens, UniProt P08069); experiment: Kinase inhibition, 33P transfer to plate-bound substrate: IGFR-1
T11 construct: Kinases are expressed as either kinase domains or full-length constructs; made in house
T11 sequence (P08069 31-1367): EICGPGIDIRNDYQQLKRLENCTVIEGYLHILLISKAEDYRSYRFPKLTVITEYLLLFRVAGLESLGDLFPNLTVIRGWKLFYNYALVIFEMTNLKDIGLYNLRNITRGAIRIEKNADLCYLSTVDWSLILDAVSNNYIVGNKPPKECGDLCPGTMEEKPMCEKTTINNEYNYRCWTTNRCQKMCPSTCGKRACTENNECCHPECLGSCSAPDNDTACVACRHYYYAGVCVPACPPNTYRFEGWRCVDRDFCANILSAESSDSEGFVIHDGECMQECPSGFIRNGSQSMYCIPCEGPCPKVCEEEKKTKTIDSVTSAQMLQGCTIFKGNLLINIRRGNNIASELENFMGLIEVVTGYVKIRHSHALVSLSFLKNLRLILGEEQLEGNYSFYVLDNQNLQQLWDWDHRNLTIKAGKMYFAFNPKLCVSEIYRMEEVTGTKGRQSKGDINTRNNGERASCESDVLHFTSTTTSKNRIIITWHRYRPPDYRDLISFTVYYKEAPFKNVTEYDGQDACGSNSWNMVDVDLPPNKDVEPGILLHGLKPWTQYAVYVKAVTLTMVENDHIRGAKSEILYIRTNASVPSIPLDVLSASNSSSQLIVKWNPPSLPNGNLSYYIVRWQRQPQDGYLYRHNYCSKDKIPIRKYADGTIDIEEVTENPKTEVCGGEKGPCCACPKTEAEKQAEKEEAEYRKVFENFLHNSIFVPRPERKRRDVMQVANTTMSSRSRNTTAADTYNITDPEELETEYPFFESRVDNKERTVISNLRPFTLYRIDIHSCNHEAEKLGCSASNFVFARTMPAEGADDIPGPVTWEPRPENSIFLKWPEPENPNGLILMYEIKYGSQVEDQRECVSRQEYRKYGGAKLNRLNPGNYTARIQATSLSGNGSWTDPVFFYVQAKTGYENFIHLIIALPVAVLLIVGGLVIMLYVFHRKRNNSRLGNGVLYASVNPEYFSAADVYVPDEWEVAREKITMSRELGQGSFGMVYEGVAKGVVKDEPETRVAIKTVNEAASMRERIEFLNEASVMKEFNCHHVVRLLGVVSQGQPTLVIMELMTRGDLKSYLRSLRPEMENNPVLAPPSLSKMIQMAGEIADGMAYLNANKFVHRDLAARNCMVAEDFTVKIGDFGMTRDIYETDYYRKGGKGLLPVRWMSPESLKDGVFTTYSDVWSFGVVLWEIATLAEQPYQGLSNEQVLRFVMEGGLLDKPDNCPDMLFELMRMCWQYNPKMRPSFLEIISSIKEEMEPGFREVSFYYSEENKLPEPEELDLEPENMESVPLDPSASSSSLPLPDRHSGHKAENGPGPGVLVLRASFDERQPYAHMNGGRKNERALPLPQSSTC
Excerpt: as §1, §2, §3

PDGFRB = molecular target: T12, PDGFRB (Homo sapiens, UniProt P09619); experiment: Kinase inhibition, 33P transfer to plate-bound substrate: PDGFRB
T12 construct: Kinases are expressed as either kinase domains or full-length constructs; made in house
Excerpt: as §1, §2, §3

FGFR1-1 = molecular target: T13, FGFR1-1 (Homo sapiens, UniProt P11362); experiment: Kinase inhibition, 33P transfer to plate-bound substrate: FGFR1-1
T13 construct: Kinases are expressed as either kinase domains or full-length constructs; made in house
Excerpt: as §1, §2, §3

Ret-1 = molecular target: T14, Ret-1 (Homo sapiens, UniProt P07949); experiment: Kinase inhibition, 33P transfer to plate-bound substrate: Ret-1
T14 construct: Kinases are expressed as either kinase domains or full-length constructs; made in house
Excerpt: as §1, §2, §3

Flt1-1 = molecular target: T15, Flt1-1 (Homo sapiens, UniProt P17948); experiment: Kinase inhibition, 33P transfer to plate-bound substrate: Flt1-1
T15 construct: Kinases are expressed as either kinase domains or full-length constructs; made in house
Excerpt: as §1, §2, §3

InsR-1 = molecular target: T16, InsR-1 (Homo sapiens, UniProt P06213); experiment: Kinase inhibition, 33P transfer to plate-bound substrate: InsR-1
T16 construct: Kinases are expressed as either kinase domains or full-length constructs; made in house
Excerpt: as §1, §2, §3

T1 sequence (P00533 25-1210): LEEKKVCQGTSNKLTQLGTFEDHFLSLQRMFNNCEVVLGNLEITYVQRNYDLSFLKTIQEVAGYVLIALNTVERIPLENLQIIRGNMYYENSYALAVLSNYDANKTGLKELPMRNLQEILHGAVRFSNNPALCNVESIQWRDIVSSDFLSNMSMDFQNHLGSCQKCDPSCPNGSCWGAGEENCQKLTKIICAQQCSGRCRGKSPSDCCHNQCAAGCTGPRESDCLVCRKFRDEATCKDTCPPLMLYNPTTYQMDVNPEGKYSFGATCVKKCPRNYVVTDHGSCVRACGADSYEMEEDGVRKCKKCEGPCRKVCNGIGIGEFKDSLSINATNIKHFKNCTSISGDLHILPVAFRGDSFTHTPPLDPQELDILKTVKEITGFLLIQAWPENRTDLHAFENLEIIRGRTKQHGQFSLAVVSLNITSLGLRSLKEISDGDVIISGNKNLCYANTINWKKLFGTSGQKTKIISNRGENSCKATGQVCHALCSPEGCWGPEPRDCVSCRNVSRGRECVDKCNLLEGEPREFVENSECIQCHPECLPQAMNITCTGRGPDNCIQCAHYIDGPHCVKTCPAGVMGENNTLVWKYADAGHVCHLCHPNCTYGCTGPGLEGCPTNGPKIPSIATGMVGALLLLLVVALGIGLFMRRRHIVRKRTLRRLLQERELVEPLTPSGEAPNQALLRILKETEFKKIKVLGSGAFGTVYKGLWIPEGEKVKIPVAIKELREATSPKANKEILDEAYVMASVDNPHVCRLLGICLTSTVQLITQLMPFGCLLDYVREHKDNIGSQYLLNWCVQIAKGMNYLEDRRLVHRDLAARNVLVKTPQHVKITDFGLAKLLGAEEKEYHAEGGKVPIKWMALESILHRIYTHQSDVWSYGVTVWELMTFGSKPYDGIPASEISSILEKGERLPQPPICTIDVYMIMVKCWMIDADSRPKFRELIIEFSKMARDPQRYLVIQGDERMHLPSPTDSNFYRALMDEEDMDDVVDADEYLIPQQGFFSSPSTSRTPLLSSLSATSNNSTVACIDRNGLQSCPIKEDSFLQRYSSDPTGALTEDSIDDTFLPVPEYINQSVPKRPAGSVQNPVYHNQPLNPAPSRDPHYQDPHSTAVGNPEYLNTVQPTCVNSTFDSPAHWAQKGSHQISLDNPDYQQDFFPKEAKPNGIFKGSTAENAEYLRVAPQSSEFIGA

SMILES	IC50 (EGFR-1) [µM]	IC50 (Akt3-1) [µM]	IC50 (Lck-2) [µM]	IC50 (Itk-1) [µM]	IC50 (Lck-1) [µM]	IC50 (Zap-1) [µM]	IC50 (Met-1) [µM]	IC50 (Tek-1) [µM]	IC50 (KDR-1) [µM]	IC50 (ErbB2-1) [µM]	IC50 (IGFR-1) [µM]	IC50 (PDGFRB) [µM]	IC50 (FGFR1-1) [µM]	IC50 (Ret-1) [µM]	IC50 (Flt1-1) [µM]	IC50 (InsR-1) [µM]
COc1cc(Nc2nccc(-n3c(N)nc4ccccc43)n2)cc(OC)c1OC [Compound 11]	≥ 10	5 to 10	1.5 to 5	5 to 10	5 to 10	≥ 10	5 to 10	≥ 10	5 to 10	–	–	–	–	–	–	–
COc1cc(Nc2nccc(-n3c(=O)oc4ccccc43)n2)cc(OC)c1OC [Compound 25]	≥ 10	≥ 10	≥ 10	≥ 10	≥ 10	≥ 10	≥ 10	≥ 10	≥ 10	≥ 10	≥ 10	≥ 10	–	–	–	–
COc1cc(Nc2ccnc(-n3ccc4ccccc43)n2)cc(OC)c1OC [Compound 32]	≥ 10	≥ 10	≥ 10	–	≥ 10	≥ 10	≥ 10	≥ 10	5 to 10	–	–	–	–	–	–	–
COc1cc(Nc2nccc(-n3ccc(-c4ccc(Cl)cc4)n3)n2)cc(OC)c1OC [Compound 33]	≥ 10	≥ 10	≥ 10	≥ 10	≥ 10	5 to 10	≥ 10	–	≥ 10	≥ 10	≥ 10	≥ 10	–	–	–	–
COc1ccc(-c2ccn(-c3ccnc(Nc4cc(OC)c(OC)c(OC)c4)n3)n2)cc1 [Compound 34]	5 to 10	≥ 10	≥ 10	≥ 10	≥ 10	5 to 10	≥ 10	–	≥ 10	≥ 10	≥ 10	≥ 10	–	–	–	–
COc1cc(Nc2nccc(Nc3ccc4c(cnn4Cc4ccccc4)c3)n2)cc(OC)c1OC [Compound 36]	< 1.5	≥ 10	< 1.5	< 1.5	< 1.5	5 to 10	1.5 to 5	–	< 1.5	< 1.5	< 1.5	< 1.5	–	–	–	–
COc1cc(Nc2ccnc(Nc3ccc4c(cnn4Cc4ccccc4)c3)n2)cc(OC)c1OC [Compound 37]	1.5 to 5	≥ 10	< 1.5	1.5 to 5	< 1.5	≥ 10	1.5 to 5	–	1.5 to 5	< 1.5	< 1.5	< 1.5	–	–	–	–
Cc1cccc(Nc2nccc(Nc3cccc(Br)c3)n2)c1 [Compound 54]	≥ 10	≥ 10	≥ 10	≥ 10	≥ 10	–	≥ 10	–	5 to 10	≥ 10	< 1.5	5 to 10	–	–	–	–
Clc1cccc(Nc2ccnc(Nc3cccc(Cl)c3)n2)c1 [Compound 57]	≥ 10	≥ 10	< 1.5	5 to 10	≥ 10	≥ 10	1.5 to 5	–	< 1.5	≥ 10	< 1.5	5 to 10	5 to 10	< 1.5	5 to 10	5 to 10
COc1cc(Nc2ccnc(Nc3ccc(OCc4ccccc4)cc3)n2)cc(OC)c1OC [Compound 58]	≥ 10	–	< 1.5	5 to 10	5 to 10	–	5 to 10	–	5 to 10	–	–	–	–	–	–	–
COc1cc(Nc2ccnc(Nc3ccc(Oc4ccccc4)cc3)n2)cc(OC)c1OC [Compound 59]	5 to 10	–	< 1.5	5 to 10	5 to 10	–	5 to 10	–	5 to 10	–	–	–	–	–	–	–
Cc1cccc(Nc2ccnc(Nc3cccc(Br)c3)n2)c1 [Compound 60]	≥ 10	≥ 10	< 1.5	1.5 to 5	≥ 10	–	5 to 10	–	1.5 to 5	–	< 1.5	1.5 to 5	–	–	–	–
